# Experimental data: patent US4898859A, “2-Oxa-isocephem compounds and compositions containing same” (Otsuka Pharmaceutical Co., Ltd., priority 1987, dated 1990)
# Where a name gives a salt, the structure may show the parent alone.
# What was measured:
# Format in all cases: cell-based
# E. coli No. 29 = test: antimicrobial activity in vitro, MIC by agar plate dilution method, E. coli No. 29; conditions: Escherichia coli, inoculum 1×10^6 cells/ml, read-out: minimal inhibitory concentration (MIC)
# Experimental: (§1) In order to investigate the in vitro activity of the under-mentioned compounds against various bacteria, the minimal inhibitory concentration (MIC) values were determined by the agar plate dilution method [see Chemotherapy, 22, 1126-1128 (1974)].
# (§2) Each test inoculum was adjusted to 1×10^6 cells/ml (O.D., 600 mμ: 0.07-0.16).
# P. mirabilis 1287 = test: antimicrobial activity in vitro, MIC by agar plate dilution method, P. mirabilis 1287; conditions: Proteus mirabilis, inoculum 1×10^6 cells/ml, read-out: minimal inhibitory concentration (MIC)
# Experimental: as §1, §2
# E. coli NIHJ = test: antimicrobial activity in vitro, MIC by agar plate dilution method, E. coli NIHJ; conditions: Escherichia coli, inoculum 1×10^6 cells/ml, read-out: minimal inhibitory concentration (MIC)
# Experimental: as §1, §2
# M. morganii ATCC-25830 = test: antimicrobial activity in vitro, MIC by agar plate dilution method, M. morganii ATCC-25830; conditions: Morganella morganii, ATCC25830, inoculum 1×10^6 cells/ml, read-out: minimal inhibitory concentration (MIC)
# Experimental: as §1, §2
# S. aureus FDA-209-p = test: antimicrobial activity in vitro, MIC by agar plate dilution method, S. aureus FDA-209-p; conditions: Staphylococcus aureus, FDA209, inoculum 1×10^6 cells/ml, read-out: minimal inhibitory concentration (MIC)
# Experimental: as §1, §2
# K. pneumoniae NCTC-9632 = test: antimicrobial activity in vitro, MIC by agar plate dilution method, K. pneumoniae NCTC-9632; conditions: Klebsiella pneumoniae, NCTC9632, inoculum 1×10^6 cells/ml, read-out: minimal inhibitory concentration (MIC)
# Experimental: as §1, §2
# S. marcescens IFO-12648 = test: antimicrobial activity in vitro, MIC by agar plate dilution method, S. marcescens IFO-12648; conditions: Serratia marcescens, IFO12648, inoculum 1×10^6 cells/ml, read-out: minimal inhibitory concentration (MIC)
# Experimental: as §1, §2
# P. aeruginosa NCTC-10490 = test: antimicrobial activity in vitro, MIC by agar plate dilution method, P. aeruginosa NCTC-10490; conditions: Pseudomonas aeruginosa, NCTC10490, inoculum 1×10^6 cells/ml, read-out: minimal inhibitory concentration (MIC)
# Experimental: as §1, §2
SMILES,MIC (E. coli No. 29) [µg/mL],MIC (P. mirabilis 1287) [µg/mL],MIC (E. coli NIHJ) [µg/mL],MIC (M. morganii ATCC-25830) [µg/mL],MIC (S. aureus FDA-209-p) [µg/mL],MIC (K. pneumoniae NCTC-9632) [µg/mL],MIC (S. marcescens IFO-12648) [µg/mL],MIC (P. aeruginosa NCTC-10490) [µg/mL]
"Nc1nc(/C(=N/OC2CCCC2)C(=O)N[C@@H]2C(=O)N3C(C(=O)[O-])=C(CSc4cc[n+](CC(=O)N5CCNCC5)cc4)OC[C@H]23)cs1 [No. 8, (6S,7S)-7-[2-(2-Aminothiazol-4-yl)-2-cyclopentyloxyiminoacetamido]-3-[[1-(1-piperazinylcarbonylmethyl)-4-pyridinio]thiomethyl]-Δ^3 -O-2-isocephem-4-carboxylate (syn-isomer)]",0.1,0.39,0.2,0.1,0.2,0.2,0.78,0.78
"Nc1nc(/C(=N/OC2CCCC2)C(=O)N[C@@H]2C(=O)N3C(C(=O)[O-])=C(CSc4cc[n+](CC(=O)N5CCCC5)cc4)OC[C@H]23)cs1 [No. 3, (6S,7S)-7-[2-(2-Aminothiazol-4-yl)-2-cyclopentyloxyiminoacetamido]-3-[[1-(1-pyrrolidinylcarbonylmethyl)-4-pyridinio]thiomethyl]-Δ^3 -O-2-isocephem-4-carboxylic acid sulfate (syn-isomer)]",0.1,0.2,0.2,0.05,0.1,0.39,0.78,0.78
"CCC(=O)C[n+]1ccc(SCC2=C(C(=O)[O-])N3C(=O)[C@@H](NC(=O)/C(=N\OC4CCCC4)c4csc(N)n4)[C@H]3CO2)cc1 [No. 7, (6S,7S)-7-[2-(2-Aminothiazol-4-yl)-2-cyclopentyloxyiminoacetamido]-3-[(1-propanoylmethyl-4-pyridinio)thiomethyl] -Δ^3 -O-2-isocephem-4-carboxylic acid sulfate (syn-isomer)]",0.1,0.1,0.2,0.05,0.1,0.39,0.78,0.78
"CN(C)C(=O)C[n+]1ccc(SCC2=C(C(=O)[O-])N3C(=O)[C@@H](NC(=O)/C(=N\OC4CCCC4)c4csc(N)n4)[C@H]3CO2)cc1 [No. 4, (6S,7S)-7-[2-(2-Aminothiazol-4-yl)-2-cyclopentyloxyiminoacetamido]-3-[(1-N,N-dimethylcarbamoylmethyl4-pyridinio)thiomethyl]-Δ^3 -O-2-isocephem-4-carboxylic acid sulfate (syn-isomer)]",0.1,0.2,0.2,0.05,0.1,0.39,1.56,1.56
"CO/N=C(\C(=O)N[C@@H]1C(=O)N2C(C(=O)[O-])=C(CSc3cc[n+](CC(=O)c4ccccc4)cc3)OC[C@H]12)c1csc(N)n1 [No. 1, (6S,7S)-7-[2-(2-Aminothiazol-4-yl)-2-methoxyiminoacetamido]-3-[(1-benzoylmethyl-4-pyridinio)thiomethyl]-Δ^3 -O-2-isocephem-4-carboxylate (syn-isomer)]",≤ 0.025,0.05,0.05,0.05,0.05,0.05,0.1,1.56
"C[n+]1ccc(SCC2=C(C(=O)[O-])N3C(=O)[C@@H](NC(=O)/C(=N\OCC(N)=O)c4csc(N)n4)[C@H]3CO2)cc1 [No. 5, (6S,7S)-7-[2-(2-Aminothiazol-4-yl)-2-carbamoylmethoxyiminoacetamido]-3-[(1-methyl-4-pyridinio)thiomethyl]-Δ^3 -O-2-isocephem-4-carboxylate (syn-isomer)]",≤ 0.025,≤ 0.025,≤ 0.025,≤ 0.025,0.2,≤ 0.025,0.1,12.5
"CO/N=C(\C(=O)N[C@@H]1C(=O)N2C(C(=O)[O-])=C(CSc3cc[n+](CC(=O)N(C)C)cc3)OC[C@H]12)c1csc(N)n1 [No. 6, (6S,7S)-7-[2-(2-Aminothiazol-4-yl)-2-methoxyiminoacetamido]-3-[(1-N,N-dimethylcarbamoylmethyl-4-pyridinio)thiomethyl]-Δ^3 -O-2-isocephem-4-carboxylic acid sulfate (syn-isomer)]",≤ 0.025,≤ 0.025,≤ 0.025,≤ 0.025,0.2,≤ 0.025,0.2,3.13

# More lines, now with the values ahead:
MIC (E. coli No. 29) [µg/mL],MIC (P. mirabilis 1287) [µg/mL],MIC (E. coli NIHJ) [µg/mL],MIC (M. morganii ATCC-25830) [µg/mL],MIC (S. aureus FDA-209-p) [µg/mL],MIC (K. pneumoniae NCTC-9632) [µg/mL],MIC (S. marcescens IFO-12648) [µg/mL],MIC (P. aeruginosa NCTC-10490) [µg/mL],SMILES
0.05,0.1,0.1,0.05,0.05,0.2,0.78,0.39,"Nc1nc(/C(=N/OC2CCCC2)C(=O)N[C@@H]2C(=O)N3C(C(=O)[O-])=C(CSc4cc[n+](CC5CC5)cc4)OC[C@H]23)cs1 [No. 12, (6S,7S)-7-[2-(2-Aminothiazol-4-yl)-2-cyclopentyloxyiminoacetamido]-3-[(1-cyclopropylmethyl-4-pyridinio)thiomethyl]-Δ^3 -O-2- -isocephem-4-carboxylic acid ditrifluoroacetate (syn-isomer)]"
0.1,0.2,0.2,0.05,0.39,0.39,1.56,3.13,"Nc1nc(/C(=N/OC2CCCC2)C(=O)N[C@@H]2C(=O)N3C(C(=O)[O-])=C(CSc4cc[n+](CC(=O)NO)cc4)OC[C@H]23)cs1 [No. 9, (6S,7S)-7-[2-(2-Aminothiazol-4-yl)-2-cyclopentyloxyiminoacetamido]-3-[(1-hydroxyaminocarbonylmethyl-4-pyridinio)thiomethyl]-Δ^3 -O-2-isocephem-4-carboxylate (syn-isomer)]"
0.1,0.2,0.2,0.05,0.1,0.39,0.78,1.56,"Nc1nc(/C(=N/OC2CCCC2)C(=O)N[C@@H]2C(=O)N3C(C(=O)[O-])=C(CSc4cc[n+](CCl)cc4)OC[C@H]23)cs1 [No. 11, (6S,7S)-7-[2-(2-Aminothiazol-4-yl)-2-cyclopentyloxyiminoacetamido]-3-[(1-chloromethyl-4-pyridinio)thiomethyl]-Δ^3 -O-2-isocephem-4-carboxylate (syn-isomer)]"
0.1,0.2,0.2,0.05,0.1,0.39,1.56,0.78,"Nc1nc(/C(=N/OC2CCCC2)C(=O)N[C@@H]2C(=O)N3C(C(=O)[O-])=C(CSc4cc[n+](CCF)cc4)OC[C@H]23)cs1 [No. 13, (6S,7S)-7-[2-(2-Aminothiazol-4-yl)-2-cyclopentyloxyiminoacetamido]-3-[[1-(2-fluoroethyl)-4-pyridinio]thiomethyl]-Δ^3 -O-2-isocephem-4-carboxylate (syn-isomer)]"
≤ 0.025,≤ 0.025,≤ 0.025,≤ 0.025,0.2,≤ 0.025,0.1,6.25,"CO/N=C(\C(=O)N[C@@H]1C(=O)N2C(C(=O)[O-])=C(CSc3cc[n+](CC(=O)N4CCOCC4)cc3)OC[C@H]12)c1csc(N)n1 [No. 10, (6S,7S)-7-[2-(2-Aminothiazol-4-yl)-2-methoxyiminoacetamido]-3-[(1-morpholinocarbonylmethyl-4pyridinio)thiomethyl]-Δ^3 -O-2-isocephem-4-carboxylate (syn-isomer)]"
